Calls of active or inactive are those of the source.
How the values were obtained:
Coagulation factor XII = target: T1, Coagulation factor XII (Homo sapiens, UniProt P00748); experiment: FXIIa inhibitor potency, concentration-response, biochemical (AID 716); type: functional
T1 sequence (P00748 whole entry): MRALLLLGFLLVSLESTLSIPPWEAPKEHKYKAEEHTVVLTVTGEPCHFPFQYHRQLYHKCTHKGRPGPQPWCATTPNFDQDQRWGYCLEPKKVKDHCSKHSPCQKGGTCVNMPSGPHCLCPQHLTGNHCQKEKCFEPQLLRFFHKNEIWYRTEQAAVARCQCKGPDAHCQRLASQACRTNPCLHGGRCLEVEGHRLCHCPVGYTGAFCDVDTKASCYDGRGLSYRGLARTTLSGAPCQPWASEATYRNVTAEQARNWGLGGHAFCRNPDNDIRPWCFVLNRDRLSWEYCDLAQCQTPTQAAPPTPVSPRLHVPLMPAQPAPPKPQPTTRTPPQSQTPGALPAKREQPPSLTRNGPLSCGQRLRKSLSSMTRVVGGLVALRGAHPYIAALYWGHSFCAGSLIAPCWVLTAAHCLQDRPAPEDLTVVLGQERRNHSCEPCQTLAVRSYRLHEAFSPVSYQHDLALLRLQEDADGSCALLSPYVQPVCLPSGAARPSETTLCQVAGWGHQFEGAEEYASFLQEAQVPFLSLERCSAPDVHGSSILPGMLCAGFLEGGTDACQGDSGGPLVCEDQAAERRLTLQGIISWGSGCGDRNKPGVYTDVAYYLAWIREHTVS

[1] = target: Tyrosine-protein phosphatase non-receptor type 11 (Homo sapiens, UniProt Q06124); experiment: SHP2 phosphatase inhibition, dose response, selectivity assay for STEP inhibitor project, biochemical (AID 602367); type: functional; conditions: read-out: IC50_Mean
[2] = target: T2, Dual specificity protein phosphatase 3 (Homo sapiens, UniProt P51452); experiment: SAR VHR1 Fluorescent Assay for In Vitro dose response studies Set 2. [Related pubchem assays (depositor defined):AID1654, AID1661, AID1878]; type: functional
[3] = target: T3, Tyrosine-protein phosphatase non-receptor type 7 (Homo sapiens, UniProt P35236); experiment: SAR analysis of chemical inhibitors of HePTP using a Fluorescent assay - Set 2. [Related pubchem assays (depositor defined):AID1059, AID1077, AID1661, AID2085, AID521]; type: functional
T3 sequence (P35236 whole entry): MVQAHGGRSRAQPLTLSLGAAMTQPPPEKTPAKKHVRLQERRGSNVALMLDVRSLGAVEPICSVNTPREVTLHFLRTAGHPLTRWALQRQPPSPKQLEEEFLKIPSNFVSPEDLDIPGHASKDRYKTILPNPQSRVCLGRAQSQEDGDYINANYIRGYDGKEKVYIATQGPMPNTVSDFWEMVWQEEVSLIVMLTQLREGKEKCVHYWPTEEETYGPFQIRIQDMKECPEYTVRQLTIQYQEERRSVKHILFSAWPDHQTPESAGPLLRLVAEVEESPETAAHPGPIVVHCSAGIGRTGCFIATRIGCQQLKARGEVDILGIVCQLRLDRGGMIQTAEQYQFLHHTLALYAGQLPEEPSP

[4] = target: Tyrosine-protein phosphatase non-receptor type 5 (Homo sapiens, UniProt P54829); experiment: STEP phosphatase inhibitors, confirmation, biochemical, fluorescence intensity, uHTS hits (AID 602372); type: functional; conditions: read-out: IC50_Mean
[5] = target: T2, Dual specificity protein phosphatase 3; experiment: VHR phosphatase inhibition, dose response, selectivity assay for STEP inhibitor project, biochemical (AID 602374); type: functional; conditions: read-out: IC50_Mean
[6] = growth suppression of beta-catenin-knockout colon cells, dose response, cell-based, HCT116, human colon tumor (AID 1045); type: functional;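 also: HCT116 colon tumor cells with beta catenin knocked out; cells exposed to compound for 60 hours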
[7] = THP-1 cell cytotoxicity, dose response, cytotoxicity control for non-replicating M. tuberculosis project (AID 489025); type: functional
cells = type: functional
[8] = growth suppression of PTEN-null colon cells, dose response, cell-based, HCT116 PTEN knockout (AID 1047); type: functional;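 also: HCT116 colon tumor cells with PTEN knocked out; cells exposed to compound for 60 hours before readout; potency for loss of cell viability measured by luminescence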
[9] = Vero E6 cell cytotoxicity, dose response, cytotoxicity control for non-replicating M. tuberculosis project, secondary assay (AID 492998); type: functional, VeroE6; conditions: Vero C1008
[10] = cytotoxicity in MIN6 insulinoma cells, dose response, cytotoxicity control, cell-based, mouse insulinoma (AID 2122); type: functional;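 also: confirmatory high-throughput counterscreen run to flag cytotoxic compounds; mouse MIN-6 beta cells carrying an insulin promoter eGFP reporter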
[11] = insulin promoter down-regulators in MIN6 cells, imaging, high-content screening, mouse beta cells (AID 1628); type: functional
[12] = HepG2 cell cytotoxicity, dose response, cytotoxicity control for non-replicating M. tuberculosis project (AID 489018); type: functional; conditions: Mycobacterium tuberculosis

T2 sequence (P51452 whole entry): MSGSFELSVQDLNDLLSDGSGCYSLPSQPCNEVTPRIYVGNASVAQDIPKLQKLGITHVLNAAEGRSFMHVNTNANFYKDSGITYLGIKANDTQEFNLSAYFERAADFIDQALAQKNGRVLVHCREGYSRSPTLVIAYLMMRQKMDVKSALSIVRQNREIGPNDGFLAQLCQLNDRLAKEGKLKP
Sequence of Tyrosine-protein phosphatase non-receptor type 11 (Q06124 whole entry): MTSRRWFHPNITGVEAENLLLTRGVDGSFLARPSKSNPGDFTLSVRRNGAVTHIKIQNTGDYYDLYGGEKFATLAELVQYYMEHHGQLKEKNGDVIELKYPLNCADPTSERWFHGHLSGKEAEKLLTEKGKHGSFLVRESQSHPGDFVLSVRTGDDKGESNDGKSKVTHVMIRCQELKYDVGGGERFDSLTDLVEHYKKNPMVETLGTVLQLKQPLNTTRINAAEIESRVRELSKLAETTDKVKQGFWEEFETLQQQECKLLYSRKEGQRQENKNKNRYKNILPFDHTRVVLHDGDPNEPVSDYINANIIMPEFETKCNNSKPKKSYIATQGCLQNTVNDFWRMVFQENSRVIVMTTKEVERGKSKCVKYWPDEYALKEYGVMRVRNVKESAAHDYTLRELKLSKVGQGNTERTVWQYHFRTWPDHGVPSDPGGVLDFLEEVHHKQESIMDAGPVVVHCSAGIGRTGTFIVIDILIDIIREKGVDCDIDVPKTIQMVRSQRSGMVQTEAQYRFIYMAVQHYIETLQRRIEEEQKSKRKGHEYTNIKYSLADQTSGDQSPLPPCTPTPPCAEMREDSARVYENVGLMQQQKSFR
Sequence of Tyrosine-protein phosphatase non-receptor type 5 (P54829 whole entry): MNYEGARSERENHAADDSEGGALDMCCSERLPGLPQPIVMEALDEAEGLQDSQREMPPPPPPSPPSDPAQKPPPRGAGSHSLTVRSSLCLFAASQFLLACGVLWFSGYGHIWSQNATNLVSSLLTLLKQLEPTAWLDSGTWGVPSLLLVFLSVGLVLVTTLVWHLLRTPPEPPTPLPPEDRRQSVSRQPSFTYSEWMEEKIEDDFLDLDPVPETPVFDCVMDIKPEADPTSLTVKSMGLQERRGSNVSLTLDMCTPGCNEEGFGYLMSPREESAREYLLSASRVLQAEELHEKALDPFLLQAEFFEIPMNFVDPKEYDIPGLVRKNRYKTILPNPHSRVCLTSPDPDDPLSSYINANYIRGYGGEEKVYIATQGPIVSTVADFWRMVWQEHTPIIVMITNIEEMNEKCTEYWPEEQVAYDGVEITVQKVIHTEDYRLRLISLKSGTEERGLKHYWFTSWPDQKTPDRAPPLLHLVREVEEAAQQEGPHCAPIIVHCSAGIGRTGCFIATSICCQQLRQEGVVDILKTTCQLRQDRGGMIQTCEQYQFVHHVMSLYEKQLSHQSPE

CC(=O)Nc1nc(=O)c2ccccc2s1
inactive: IC50 (Coagulation factor XII) > 50 µM

CN1CCN(C(S)=Nc2ccc(S(N)(=O)=O)cc2)CC1
active: IC50 [1] 6.54 µM | IC50 [2] 15.4 µM | IC50 [3] 27.4 µM | IC50 [5] 1.32 µM
inactive: IC50 [4] 27.8 µM

COc1cccc(CNCCc2c[nH]c3ccccc23)c1OCc1ccc(F)cc1
active: EC50 [6] 6.39 µM | CC50 [7] 15.6 µM | IC50 (cells) 16.4 µM | EC50 [8] 5.74 µM | CC50 [9] 13.4 µM | IC50 [10] 3.37 µM | IC50 [11] 2.56 µM | CC50 [12] 9.79 µM
